According to patent US20030138429A1, “Compositions and methods for inhibiting metastasis” (priority 2001, published 2003):

Test system: 1-LN cells
Experiment: MMP-9 mRNA levels in 1-LN cells by RT-PCR
Type: cell-based, human
Conditions: for MMP-9 EXPRESSION mRNA: Yes/No; for Relative MMP-9 mRNA levels (ratio MMP-9 mRNA/GAPDH mRNA): glycoform 0.1 μM, 24 h, versus serum-free medium alone, in words
Protocol: RNA Isolation—To determine changes in MMP-9 mRNA induced by Pg, 1-LN cells were grown in 48 well culture plates (1.7×10^6 cells/well) and incubated with each individual Pg 2 glycoform for 24 h at 37° C. Cell monolayers were then rinsed twice in serum-free RPMI 1640 and total RNA extracted by a single-step method, using RNeach Mini kit (Qiagen, Chatsworth, Calif.), according to the manufacturer's instructions.
Measurement of MMP-9 mRNA Levels by Reverse Transcription-PCR (RT-PCR)—Total RNA was reverse transcribed with 1 μg of RNA in a 20 μl reaction mixture, using M-MLV reverse transcriptase (200 U) and oligo d(T) as primer for 1 h at 42° C. The resulting cDNA (5 μl) was used as a template and a […] segment of the MMP-9 cDNA was amplified, using a 24-mer upstream primer (5′-[…]-3′), identical to positions 2079-2102 and a 29-mer downstream primer (5′-[…]-3′) complimentary to positions 2270-2298 of the human MMP-9 mRNA [45]. A 600-bp segment of the glyceraldehyde phosphate dehydrogenase (GAPDH, constitutive internal control) cDNA was co-amplified, using a 24-mer upstream primer (5′-[…]), identical to positions 212-235 and a 24-mer downstream primer (5′-[…]-3′), complimentary to positions 786-809 of the human GAPDH mRNA [46]. Amplification was carried out in a Techne Thermal Cycler PHC-3 for 28 cycles (one cycle=94° C. for 45 s, 60° C. for 45 s, and 72° C. for 45 s). PCR products were analyzed on a 1.2% agarose-ethidium bromide gel. The gels were photographed and the intensity of the individual MMP-9 and GAPDH mRNA bands measured by laser densitometric scanning, using a Molecular Dynamics Personal Densitometer. Changes in MMP-9 mRNA levels were expressed as a relative ratio of MMP-9 mRNA/GAPDH mRNA band intensities.

Substance	MMP-9 EXPRESSION mRNA	Relative MMP-9 mRNA levels (ratio MMP-9 mRNA/GAPDH mRNA)
Pg 2α: glycoform of human plasminogen type 2 purified from plasma; 1.3 mol sialic acid/mol Pg	No	did not show a significant change
Pg 2β: glycoform of human plasminogen type 2 purified from plasma; 2.2 mol sialic acid/mol Pg	No	did not show a significant change
Pg 2γ: glycoform of human plasminogen type 2 purified from plasma; 2.95 mol sialic acid/mol Pg	No	did not show a significant change
Pg 2δ: glycoform of human plasminogen type 2 purified from plasma; 5.77 mol sialic acid/mol Pg	No	did not show a significant change
Pg 2ε: glycoform of human plasminogen type 2 purified from plasma; 5.34 mol sialic acid/mol Pg	Yes	significant increase
